# System: AIA mice
# Experiment: Antigen-induced arthritis (AIA) model
# Format: in vivo, mouse
# Excerpt: FIGS. 25A-25E depict distinguishable effects of GM-CSF and TNF-α in mouse AIA. […] Data are representative of more than three independent experiments. Representative images of joint sections stained with H&E (FIG. 25C) or Safranin-O/Fast Green (FIG. 25D) at day 7 after arthritis induction as in FIG. 25C. Bars, 500 μm (FIG. 25C upper panels and FIG. 25D) or 100 μm (FIG. 25C lower panels). Arrow in upper panels (FIG. 25C) indicated bone destruction. In FIG. 25E, serum concentrations of GM-CSF, IFN-γ and TNF-α in Stat5^+/+ and Stat5−/− AIA mice were quantified by ELISA. Statistics of n>=8 per group were shown. *p<0.05, **p<0.01, ***p<0.001.
# FIGS. 28A-28G depicts STAT5-regulated GM-CSF-producing TH cells are crucial for AIA. Spleens and synovial tissues were collected from Stat5^+/+ and Stat5^−/− mice at day 7 after arthritis induction. (FIG. 28A) Splenic fractions of wild-type AIA mice (n=3) were stimulated under indicated conditions for 18 h. GM-CSF levels in supernatant were quantified by ELISA. (FIGS. 28B-28D) Intracellular staining and flow cytometry of GM-CSF, IL-17 and IFN-γ in splenic CD4^+CD44^hi effector T cells (FIG. 28B) or in synovial infiltrating CD4^+ T cells (FIGS. 28C and 28D) after restimulation for 4 h with PMA/Ionomycin in the presence of Golgiplug. Representative images and statistics of n=5 (FIG. 28B, right panels) or n=3 (FIG. 28D, right panels) per group were shown. Data represent two independent experiments. (FIG. 28E) Protein expression of several proinflammatory cytokines in synovial tissues was measured by ELISA. (FIGS. 28F and 28G) Representative images of joint sections stained with H&E (FIG. 28F) or Safranin-O/Fast Green (FIG. 28G) at day 7 after intraarticular injection of mBSA alone to the right knee joints and mBSA supplemented with GM-CSF to the left knee joints. Bars, 500, 50 or 200 μm as indicated. Data represent two independent experiments.*p<0.05, **p<0.01, p<0.05, **p<0.01, ***p<0.001; ns, not significant. “Splenocytes” represent the left-most bars in each group, “splenocytes depleted of CD4+ T cells” represent the middle bars in each group, and “CD4+ T cells” represent the right-most bars in each group.
# FIGS. 31A-31D depicts SAT5-induced GM-CSF expression mediates CD11b^+ cell accumulation in inflamed synovial tissues. (FIG. 31A) The frequencies of CD11b^+ cells in spleens of Stat5^+/+ and Stat5^−/− AIA mice were analyzed by flow cytometry. Statistics of n=3 per group (right panel) were shown. (FIG. 31B) Synovial tissues were harvested from Stat5^+/+ and Stat5^−/− mice at day 7 after arthritis induction, and dissociated into single cell suspensions. The percentage of CD11b^+ myeloid cells among CD45^+ fraction was analyzed by flow cytometry. Statistics of n=5 per group were shown in right panel. […]
# [1] = 100 ng intraarticular together with mBSA, day 7
substance,measurement,setting,value
GM-CSF: granulocyte macrophage colony-stimulating factor (ImmunoTools) given intraarticularly or added to cell cultures,cartilage depletion in Stat5−/− mice (Safranin-O/Fast Green),[1],severe cartilage depletion
same,synovial inflammation in Stat5−/− mice,[1],efficiently restored synovial inflammation
same,neutrophil accumulation in synovial compartments of STAT5-deficient mice,intraarticular administration during arthritis induction,efficiently restored neutrophil accumulation
same,synovial CD11b+ cell accumulation in STAT5-deficient mice,local administration during arthritis induction,partially restored
